Data published in patent publication US3955959A, “Herbicide for use in transplanted rice” (priority 1974, dated 1976).
Values joined by “and” are separate entries in the source; they are usually repeats but may differ in a detail not shown here. Equal values may be shown once.

Tests used:
Dapog transplanted rice = assay: Example 3 field test, crop injury; details: for Crop Injury (%): obs. 42 DAT
Experimental: (§1) In the tests described in the tables below, the herbicides were formulated and used in granular form in conventional manner. […] The commercial herbicide used was a granular product having 5% active ingredient.
(§2) In the field tests of the herbicide of this invention with transplanted rice, the rice seedlings were grown in conventional manner, by seeding the rice in a typical seedbed of sandy loam to clay soil of the country wherein the test was conducted. For laboratory and greenhouse work the seedlings were obtained by seeding rice in a mixture of soil, e.g., Ray silt loam, and peat in wood flats. For purposes of testing the herbicides on younger rice seedlings (infant or Dapog) the rice was usually allowed to grow for 6-15 days before lifting for transplanting. Older (ordinary) rice plants were usually grown for a period of about 2-3 weeks, or as much as about 7 weeks before lifting. Since the period of growth is dependent upon climatic conditions, a better measure of when to transplant the rice seedling is the leaf stage of growth; for infant or Dapog rice the seedling is lifted at the 1.5-2 leaf stage of growth, and for ordinary seedlings at the 2.5-5 leaf stage. The seedlings were then transplanted to the test plots for evaluation of the herbicide for injury against weed species present with the transplanted rice. The herbicides were then applied to the growth medium of the weeds and transplant rice, either preemergent or postemergent with respect to the weeds and postemergent with respect to the transplanted rice. Application times are designated in the tables as "DAT", meaning "days after transplant". Application rates given in the tables refer to the amount of active ingredient used.
Eleven (11) day-old Dapog seedlings were transplanted and treated at 5 DAT and 14 DAT with Herbicides A and B. The plots were overseeded with Echinochloa crusgalli seeds at 2 kgs/ha prior to transplanting. Treatments were replicated four times.

transplanted rice [1] = assay: Example 1 field test, rice injury; assay type: in vivo, rice (Watanabe variety)
Source text: In the field test 48 day-old seedlings (Watanabe variety) were transplanted to plots 2.5 × 6 m. seeded with the weed seeds indicated in Table 1. At 5 and 10 DAT periods, the herbicides were applied to the plants (now at the 1.2 and 2.0 leaf stage, respectively, of grass weed) at the indicated rate in kilograms per hectare (kg/ha). The weed control and rice injury results for 3 replications are reported in percentages as of the indicated times of observation. The percentages given in the "Perennials" column are based on the weight of the weeds at 63 DAT, i.e., 42 gms/3.6 m^2 for the weedy check.

[2] = system: weeds in upland direct-seeded rice; assay: Example 7 overall; assay type: in vivo; details: direct-seeded rice cultures
Experimental: In a further comparative study of the preemergence activity of Herbicides A and B, a variety of weeds and upland direct-seeded rice were tested under greenhouse conditions. The present invention is not concerned with the use of Herbicide A in direct-seeded rice. The primary purpose of the experimental work in this example is to compare relative herbicidal activity of Herbicides A and B against the weeds shown in Table 7; most of these weeds were not available for tests with transplanted rice. Although the relative selectivity of these herbicides in upland rice is also evident, that aspect of the tests is more or less incidental to the purpose of this example.
In this example, rice seeds and seeds of the weeds shown in Table 7 were sown in Ray silt loam soil at a depth of 0.5 inch (1.27 cm) in containers for the soil in a greenhouse. Herbicides A and B were applied to the surface of the soil at a spray volume equivalent to 20 gals/acre (187.1 liters/hectare), followed by 0.5 in (1.27 cm) of overhead irrigation. Temperature and relative humidity in the greenhouse were on the order of 85°F (29°C) and 75%, respectively. Observations were made at 21-28 days after seeding. […]

[3] = system: transplanted rice (ordinary and infant seedlings); assay: Example 5 field test, rice yield; assay type: in vivo; details: in vivo
Experimental: as §1, §2
The rice seedlings were grown to the 1.7 leaf stage for infant seedlings and to the 5.5 leaf stage for ordinary seedlings. Two days after puddling the soil in which the seedlings were to be transplanted, both infant and ordinary seedlings were transplanted into plots 8.5 m^2.
The weed symbol "Obw" represents "other broadleaf weeds" of unspecified identity. Results presented in Table 5 represent the average of 2 replications.

[4] = system: Sedges: Cd, Ci, Fl (Cyperus difformis, Cyperus iria, Fimbristylis littoralis); assay: Example 3 field test on Dapog rice, weed control, Munoz, Philippines; assay type: in vivo; details: obs. 42 DAT
Source text: (§3) Treatments were replicated four times.

[5] = system: Sedges: Cd, Ci, Fl (Cyperus difformis, Cyperus iria, Fimbristylis littoralis); assay: Example 4 field test on ordinary rice, weed control, Munoz, Philippines; assay type: in vivo; details: obs. 36 DAT
Source text: as §3

[6] = system: Grass: Ec and Ecol (Echinochloa crusgalli, Echinochloa colonum); assay: as above; assay type: in vivo; details: obs. 36 DAT
Source text: as §3

transplanted rice [7] = assay: Example 2 field test, rice yield; assay type: in vivo, rice (Tainan No. 5, japonica); details: in vivo
Experimental: as §1, §2
Rice seedlings (ordinary) of Tainan No. 5 variety (japonica) were transplanted at 19 days of growth. Granular formulations of Herbicides A and B were applied at the 1 leaf stage of grass weed (4 DAT) and 2.5 leaf stage of grass weed (10 DAT). Observations were made at 63 DAT and results reported in Table 2 as an average of 3 replications.

CCCCOCN(C(=O)CCl)c1c(C)cccc1C(C)(C)C [Herbicide A, n-(butoxymethyl)-6'-tert-butyl-2-chloro-o-acetotoluidide]
Crop Injury (%) (Dapog transplanted rice; 5 DAT, 1.0 kg/ha): 40%
Crop Injury (%) (Dapog transplanted rice; 5 DAT, 2.0 kg/ha): 50%
Crop Injury (%) (Dapog transplanted rice; 5 DAT, .25 kg/ha): 0%
Crop Injury (%) (Dapog transplanted rice; 5 DAT, .5 kg/ha): 0%
Crop Injury (%) (Dapog transplanted rice; 14 DAT, 1.0 kg/ha): 0%
Crop Injury (%) (Dapog transplanted rice; 14 DAT, 2.0 kg/ha): 80%
Crop Injury (%) (Dapog transplanted rice; 14 DAT, .25 kg/ha): 0%
Crop Injury (%) (Dapog transplanted rice; 14 DAT, .5 kg/ha): 0%
rice injury in words (Dapog transplanted rice; higher rates, 5 DAT): considerable rice injury
% Rice Injury (transplanted rice [1]; 5 DAT, 1.0 kg/ha, obs. 21 DAT): 5%
% Rice Injury (transplanted rice [1]; 5 DAT, 1.0 kg/ha, obs. 42 DAT): 0%
% Rice Injury (transplanted rice [1]; 5 DAT, 2.0 kg/ha, obs. 21 DAT): 10%
% Rice Injury (transplanted rice [1]; 5 DAT, 2.0 kg/ha, obs. 42 DAT): 0%
% Rice Injury (transplanted rice [1]; 5 DAT, .25 kg/ha, obs. 21 DAT): 0%
% Rice Injury (transplanted rice [1]; 5 DAT, .25 kg/ha, obs. 42 DAT): 0%
% Rice Injury (transplanted rice [1]; 5 DAT, .5 kg/ha, obs. 21 DAT): 0%
% Rice Injury (transplanted rice [1]; 5 DAT, .5 kg/ha, obs. 42 DAT): 0%
% Rice Injury (transplanted rice [1]; 10 DAT, 1.0 kg/ha, obs. 21 DAT): 0%
% Rice Injury (transplanted rice [1]; 10 DAT, 1.0 kg/ha, obs. 42 DAT): 0%
% Rice Injury (transplanted rice [1]; 10 DAT, 2.0 kg/ha, obs. 21 DAT): 10%
% Rice Injury (transplanted rice [1]; 10 DAT, 2.0 kg/ha, obs. 42 DAT): 0%
% Rice Injury (transplanted rice [1]; 10 DAT, .25 kg/ha, obs. 21 DAT): 0%
% Rice Injury (transplanted rice [1]; 10 DAT, .25 kg/ha, obs. 42 DAT): 0%
% Rice Injury (transplanted rice [1]; 10 DAT, .5 kg/ha, obs. 21 DAT): 0%
% Rice Injury (transplanted rice [1]; 10 DAT, .5 kg/ha, obs. 42 DAT): 0%
early season injury to rice (transplanted rice [1]; Example 1, outgrown): slight early season injury to rice was outgrown
activity vs Herbicide B in direct-seeded rice [2]: significantly more active
Yield % of H.W.C. [3]: 97% and 95% and 96% and 98% and 99% and 102%
yields vs Herbicide B at 1.5 kg/ha 7 DAT [3]: essentially the same
% Weed control, Sedges (Cd, Ci, Fl) ([4]; 5 DAT, 1.0 kg/ha): 100%
% Weed control, Sedges (Cd, Ci, Fl) ([4]; 5 DAT, 2.0 kg/ha): 100%
% Weed control, Sedges (Cd, Ci, Fl) ([4]; 5 DAT, .25 kg/ha): 100%
% Weed control, Sedges (Cd, Ci, Fl) ([4]; 5 DAT, .5 kg/ha): 100%
% Weed control, Sedges (Cd, Ci, Fl) ([4]; 14 DAT, 1.0 kg/ha): 70%
% Weed control, Sedges (Cd, Ci, Fl) ([4]; 14 DAT, 2.0 kg/ha): 70%
% Weed control, Sedges (Cd, Ci, Fl) ([4]; 14 DAT, .25 kg/ha): 0%
% Weed control, Sedges (Cd, Ci, Fl) ([4]; 14 DAT, .5 kg/ha): 70%
% Weed control, Sedges (Cd, Ci, Fl) ([5]; 5 DAT, 1.0 kg/ha): 100%
% Weed control, Sedges (Cd, Ci, Fl) ([5]; 5 DAT, 2.0 kg/ha): 100%
% Weed control, Sedges (Cd, Ci, Fl) ([5]; 5 DAT, .25 kg/ha): 100%
% Weed control, Sedges (Cd, Ci, Fl) ([5]; 5 DAT, .5 kg/ha): 100%
% Weed control, Sedges (Cd, Ci, Fl) ([5]; 14 DAT, 1.0 kg/ha): 60%
% Weed control, Sedges (Cd, Ci, Fl) ([5]; 14 DAT, 2.0 kg/ha): 60%
% Weed control, Sedges (Cd, Ci, Fl) ([5]; 14 DAT, .25 kg/ha): 60%
% Weed control, Sedges (Cd, Ci, Fl) ([5]; 14 DAT, .5 kg/ha): 50%
% Weed control, Grass (Ec and Ecol) ([6]; 5 DAT, 1.0 kg/ha): 100%
% Weed control, Grass (Ec and Ecol) ([6]; 5 DAT, 2.0 kg/ha): 100%
% Weed control, Grass (Ec and Ecol) ([6]; 5 DAT, .25 kg/ha): 100%
% Weed control, Grass (Ec and Ecol) ([6]; 5 DAT, .5 kg/ha): 100%
% Weed control, Grass (Ec and Ecol) ([6]; 14 DAT, 1.0 kg/ha): 80%
% Weed control, Grass (Ec and Ecol) ([6]; 14 DAT, 2.0 kg/ha): 80%
% Weed control, Grass (Ec and Ecol) ([6]; 14 DAT, .25 kg/ha): 60%
% Weed control, Grass (Ec and Ecol) ([6]; 14 DAT, .5 kg/ha): 80%
Yield (% of H.W. Check) (transplanted rice [7]): 97% and 105% and 107% and 81% and 91% and 100% and 73%
rice yield depression (transplanted rice [7]): rice yield depression
